Patent US20210293825A1, “METHODS FOR PRECISION THERAPEUTIC TARGETING OF HUMAN CANCER CELL MOTILITY AND KITS THEREOF” (UNITED STATES GOVERNMENT AS REPRESENTED BY THE DEPARTMENT …, priority 2018, published 2021)

Assays:
estrogen receptor (ER) = molecular target: T1, estrogen receptor (ER) (Homo sapiens, UniProt P03372); assay: pERE-Luc estrogen receptor reporter assay in MCF-7 cells; type: cell-based; conditions: 24 hours, micromolar concentrations
T1 construct: estrogen receptor positive MCF-7 cells; endogenous in cells; host or cells: MCF-7
Description: Values are the mean±SD of a single experiment, with similar results seen in a separate repeat experiment, both in replicates of N=2.
Constructs, Transfection, and Luciferase Assays. Constructs were purchased or gifts: constitutive active MEK4EE (MAP2K4-EE; residues 37-399; Addgene, plasmid 14813), pRL-TK-Renilla luciferase (Promega), pCMV-β-galactosidase (Agilent Technologies), and pcDNA-GFP (Invitrogen), HSP90β was from Pawel Bieganowski (Mossakowski Medical Research Center PAS, Poland) (Zurawska, A. et al., Biochim Biophys Acta 1803, 575-83 (2010)), estrogen responsive promoter-luciferase reporter construct, pERE-Luc, was from Craig Jordan (Georgetown University) (Catherino, W. H. et al., Cancer Lett 92, 39-47 (1995)), human CDC37 in pET15b plasmid was from Avrom Caplan (City College of New York) (Rao, J. et al., J Biol Chem 276, 5814-20 (2001)). siRNA used Dharmacon ON-Targetplus SMARTpool™ siRNA directed against HSP90β (cat #L-005187-00-0010) non-targeting siRNA (cat #D-001810-10-05), used TransIT-LT1 Transfection Reagent (Mirus Bio LLC), or with Dharmafect Duo (Thermo Scientific, Lafayette, Colo.) for co-delivery of plasmid. Luciferase assays were performed as described (Breen, M. J. et al., PLoS One 8, e72407 (2013)).
Luciferase activity was measured, normalized to that of β-gal, and values expressed as the percent of untreated vector control cells.

PC3 or PC3M cells = assay: Scratch wound healing assay with siRNA knockdown; type: cell-based, human
Description: HEK293T cells were transfected with 1 of 420 different protein kinases, treated with 10 μM KBU2046 (N=5 replicates) or vehicle control (N=5) for three days, and LUMIER assays performed. The N=17 kinases that gave significant findings (Student's t-test <0.05) in the same direction in each of two separate experiments are depicted. Each separate treatment and kinase condition in each of two separate experiments was conducted in replicates of N=5. […] FIGS. 6c and 6d show the results of the wound healing assay. PC3 cells were transfected with siRNA targeting RAF1 (si-Raf1) or non-targeting siRNA (si-control), treated with KBU2046 or vehicle as above, and RAF1 protein measured by Western blot (c) and effects upon wound healing measured (d). […] Purified recombinant HSP90β, CDC37, and RAF1 were combined with KBU2046, as indicated, incubated in an in vitro kinase assay for the indicated times, and Western blot for RAF1-Ser^338 phosphorylation performed. FIGS. 6f and 6g show the effect on HSP90β/CDC37 heterocomplex formation and function in vitro. Purified recombinant HSP90β, CDC37, RAF1, SGK3 or MAP3K6 were combined and treated with KBU2046 or vehicle control, as indicated, incubated in an in vitro kinase assay for the indicated times, and Western blot performed, as denoted. Experiments were repeated at separate times at least once, with similar results.
FIGS. 24b-d show the results of the wound healing assay. PC3 or PC3M cells were treated+/−KBU2046 and with siRNA to the denoted gene, or with non-targeting control siRNA (NT), and effects upon transcript (b) or protein expression (c) measured by qRT/PCR or Western blot, respectively. For qRT/PCR, values are expressed as the target gene/GAPDH ratio, normalized to that of NT/−KBU2046 cells. Under the same conditions, wound healing assays were performed (d).
Scratch Wound Assays. Cells were transfected with the indicated si-RNA constructs per manufacture protocol (GE-Dharmacon), cultured 48 hrs with 10 μM KBU2046 or vehicle, and scratch wound assay performed as described (Xiao, X. et al., Oncotarget 6, 3225-39 (2015)). […]

human prostate cells = assay: Three day cell growth inhibition, human prostate cells; type: cell-based; conditions: 3 days growth inhibition
Description: FIG. 1a is a schematic flow of probe synthesis and development strategy. […] Values are mean±SEM of a single experiment in replicates of N=4, with similar findings in multiple separate experiments (also N=4). […] Values are mean±SEM of a single experiment in replicates of N=24, with similar findings in a separate experiment (also N=24). *Denotes Student's t test P value <0.05, compared to controls. […] Values are mean±SEM from N>2 separate experiments, each in replicates of N=3. […] Values are the mean±SD number of total, CFU-GM, CFU-GEMM or BFU-E colonies at 14 days after treatment with KBU2046, from a single experiment in replicates of N=2. […] Values are the mean±SD of a single experiment, with similar results seen in a separate experiment, both in replicates of N=2.
Assays were in replicates of N=3, and were repeated.

[1] = system: recombinant human protein kinases; assay: Kinex kinase assay system (inhibition of ATP binding); conditions: tested at 1 and 10 μM
Description: Kinase assay system #2. The Kinex™ kinase assay system (Kinexus Proteomics Company). This platform uses recombinant human protein kinases expressed in an insect expression system, thus allowing an avenue for post-translational modification. Also, this platform measures inhibition of ATP binding. This platform putatively measured 200 different kinases, and we tested KBU2046 at 1 and 10 μM. […] There were two important technical issues. First, at 10 μM KBU2046 interfered with the colorimetric-based readout of the assay. […] Conclusions: there was no evidence that KBU2046 inhibits kinase function by competing for ATP binding in the active site.

T1 sequence (P03372 whole entry): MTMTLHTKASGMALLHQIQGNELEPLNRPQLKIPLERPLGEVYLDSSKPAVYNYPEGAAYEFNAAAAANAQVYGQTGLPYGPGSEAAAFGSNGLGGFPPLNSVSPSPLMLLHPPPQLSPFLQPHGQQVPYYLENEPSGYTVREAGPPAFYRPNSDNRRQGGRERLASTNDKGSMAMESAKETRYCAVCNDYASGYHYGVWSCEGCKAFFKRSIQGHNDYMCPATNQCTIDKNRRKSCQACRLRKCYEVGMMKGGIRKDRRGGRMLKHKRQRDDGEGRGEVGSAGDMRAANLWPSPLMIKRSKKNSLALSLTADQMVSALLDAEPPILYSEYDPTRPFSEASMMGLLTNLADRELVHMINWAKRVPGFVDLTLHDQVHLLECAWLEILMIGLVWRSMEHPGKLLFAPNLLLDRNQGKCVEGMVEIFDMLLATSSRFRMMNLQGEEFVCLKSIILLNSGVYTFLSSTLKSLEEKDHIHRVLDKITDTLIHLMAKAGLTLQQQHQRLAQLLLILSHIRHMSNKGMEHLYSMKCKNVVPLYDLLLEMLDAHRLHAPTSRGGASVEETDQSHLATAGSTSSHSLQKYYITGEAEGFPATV

## O=C1c2ccccc2OCC1c1ccc(F)cc1 (racemic) [KBU2046, (±)-3(4-fluorophenyl)chroman-4-one]
Estrogen receptor (ER)
  activation of the estrogen receptor: does not activate the estrogen receptor (ER)
PC3 or PC3M cells; SGK3 knockdown
  efficacy on motility: still retained efficacy
PC3 or PC3M cells; Western blot, cells
  RAF1 protein expression levels: did not alter RAF1 protein expression levels
PC3 or PC3M cells; knockdown of RAF1 or of RIPK1
  efficacy on motility: mitigated KBU2046 efficacy
Human prostate cells
  toxicity to human prostate cells: not toxic
[1]
  inhibition of ATP binding: completely negative
